In general, IC50 refers to the concentration at which inhibition is half-maximal.

This passage reports IC50 results from patent US20260355196A1, “INHIBITORS AND DEGRADERS OF PIP4K PROTEIN” (Larkspur Biosciences, Inc., priority 2023, published 2026).

This assay has as its target T1, PIP4K2C (Homo sapiens, UniProt Q8TBX8).
T1 sequence (Q8TBX8 1-421): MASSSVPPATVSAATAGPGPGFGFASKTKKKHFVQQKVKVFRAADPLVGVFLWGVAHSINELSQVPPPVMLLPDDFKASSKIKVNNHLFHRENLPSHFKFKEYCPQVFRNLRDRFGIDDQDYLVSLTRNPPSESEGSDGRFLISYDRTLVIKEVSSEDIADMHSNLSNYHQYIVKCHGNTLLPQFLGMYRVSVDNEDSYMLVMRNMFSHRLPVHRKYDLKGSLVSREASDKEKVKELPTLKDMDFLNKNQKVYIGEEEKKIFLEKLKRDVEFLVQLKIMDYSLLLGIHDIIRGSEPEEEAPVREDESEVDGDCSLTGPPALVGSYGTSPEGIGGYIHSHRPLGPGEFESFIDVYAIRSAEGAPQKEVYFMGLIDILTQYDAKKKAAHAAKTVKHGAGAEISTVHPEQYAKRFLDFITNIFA
Put plainly: Enzyme Binding Assay (KINOMEscan): active site-directed competition binding to an immobilized ligand. Conditions: 11-point dose response, duplicate, top concentration 5 micromolar; read-out: Pip4k2c Kd: IC50. Also noted: purchased Eurofins DiscoverX, San Diego, CA 87-0007-1094. The procedure:
Example B-1: Enzyme Binding Assays (KINOMEscan)
PIP4K2C binding constants disclosed herein were determined using the proprietary Human PIP4K2C binding assay (Catalog number 87-0007-1094, Eurofins DiscoverX, San Diego, CA). This assay measures active site-directed competition binding to an immobilized ligand (see https://doi.org/10.1038/nbt1068, herein incorporated by reference in its entirety). Experiments were conducted using an 11-point dose response curve, in duplicate, with a top starting concentration of 5 micromolar; the Levenberg-Marquardt algorithm was used to fit a Hill equation to dose-response data to calculate IC50 values (see Table 5).
Regarding `CC(=O)N[C@H]1CC[C@@H](Nc2ncc(Cl)c(-c3cccc(-c4ccccc4)c3)n2)CC1` [Compound 31, N-(cis-4-((4-([1,1′-biphenyl]-3-yl)-5-chloropyrimidin-2-yl)amino)cyclohexyl)acetamide], the IC50 is 0.5 to 1 µM. Consider `CC(=O)N[C@H]1CC[C@H](Nc2ncc(Cl)c(-c3cccc(-c4ccccc4)c3)n2)CC1` [Compound 32, N-(trans-4-((4-([1,1′-biphenyl]-3-yl)-5-chloropyrimidin-2-yl)amino)cyclohexyl)acetamide], for which the IC50 is less than 0.5 µM. Turning to `CC(=O)N1CCC[C@H](Nc2ncc(Cl)c(N3CCCC(c4ccccc4)C3)n2)C1` (stereo partly drawn) [Compound 35, 1-((3S)-3-((5-chloro-4-(3-phenylpiperidin-1-yl)pyrimidin-2-yl)amino)piperidin-1-yl) ethan-1-one], the IC50 is less than 0.5 µM. As to `CC(=O)N1CCC[C@H](Nc2ncc(Cl)c(-c3cccc(N4CCCCC4)c3)n2)C1` [Compound 37, (S)-1-(3-((5-chloro-4-(3-(piperidin-1-yl)phenyl)pyrimidin-2-yl)amino)piperidin-1-yl)ethan-1-one], the half-inhibitory concentration (IC50) is less than 0.5 µM. Consider `CC(=O)N1CCC[C@H](Nc2ncc(Cl)c(-c3cccc(C4CCCCC4)c3)n2)C1` [Compound 39, (S)-1-(3-((5-chloro-4-(3-cyclohexylphenyl)pyrimidin-2-yl)amino)piperidin-1-yl)ethan-1-one], for which the IC50 was less than 0.5 µM. Turning to `NC(=O)C1CCCC(Nc2ncc(F)c(-c3cccc(-n4ccccc4=O)c3)n2)C1` (centres unmarked) [Compound 40, 3-[[5-fluoro-4-[3-(2-oxo-1-pyridyl)phenyl]pyrimidin-2-yl]amino]cyclohexanecarboxamide], the concentration for half-maximal inhibition (IC50) was less than 0.5 µM. For `CNC(=O)[C@H]1CC[C@H](Nc2ncc(Cl)c(-c3cccc(-c4cccc(=O)[nH]4)c3)n2)CC1` [Compound 92, trans-(1r,4r)-4-((5-chloro-4-(3-(6-oxo-1,6-dihydropyridin-2-yl)phenyl)pyrimidin-2-yl)amino)-N-methylcyclohexane-1-carboxamide] the value was less than 0.5 µM; for `CC(=O)N[C@H]1CC[C@@H](Nc2ncc(Cl)c(-c3cccc(-n4ccccc4=O)c3)n2)CC1` [Compound 93, cis-N-((1s,4s)-4-((5-chloro-4-(3-(2-oxopyridin-1 (2H)-yl)phenyl)pyrimidin-2-yl)amino)cyclohexyl)acetamide], less than 0.5 µM. For `CNC(=O)[C@H]1C[C@@H](Nc2ncc(Cl)c(-c3cccc(-n4ccccc4=O)c3)n2)C1` [Compound 94, cis-3-((5-chloro-4-(3-(2-oxopyridin-1 (2H)-yl)phenyl)pyrimidin-2-yl)amino)-N-methylcyclobutane-1-carboxamide] the value was less than 0.5 µM; for `CNC(=O)[C@H]1CC[C@H](Nc2ncc(Cl)c(-c3ccc(=O)n(-c4ccc(F)cc4)c3)n2)CC1` [Compound 95, trans-(1r,4r)-4-((5-chloro-4-(1-(4-fluorophenyl)-6-oxo-1,6-dihydropyridin-3-yl)pyrimidin-2-yl)amino)-N-methylcyclohexane-1-carboxamide], 1 to 5 µM; for `CC(=O)N[C@H]1CC[C@H](Nc2ncc(Cl)c(-c3ccc(=O)n(C4CC4)c3)n2)CC1` [Compound 96, trans-N-((1r,4r)-4-((5-chloro-4-(1-cyclopropyl-6-oxo-1,6-dihydropyridin-3-yl)pyrimidin-2-yl)amino)cyclohexyl)acetamide], 0.5 to 1 µM.

Take `CNC(=O)[C@H]1C[C@@H](Nc2ncc(Cl)c(-c3cnn(C4CC4)c3)n2)C1` [Compound 97, cis-3-((5-chloro-4-(1-cyclopropyl-1H-pyrazol-4-yl)pyrimidin-2-yl)amino)-N-methylcyclobutane-1-carboxamide]: the IC50 was less than 0.5 µM. As for `CC(=O)N1CCC(Nc2ncc(Cl)c(-c3cnn(C4CC4)c3)n2)CC1` [Compound 98, 1-(4-((5-chloro-4-(1-cyclopropyl-1H-pyrazol-4-yl)pyrimidin-2-yl)amino)piperidin-1-yl)ethan-1-one], the IC50 was less than 0.5 µM. For `CC(=O)N[C@H]1CC[C@@H](Nc2ncc(Cl)c(-c3cnn(C4CC4)c3)n2)CC1` [Compound 99, cis-N-((1s,4s)-4-((5-chloro-4-(1-cyclopropyl-1H-pyrazol-4-yl)pyrimidin-2-yl)amino)cyclohexyl)acetamide] the value was 0.5 to 1 µM; for `CC(=O)N[C@H]1CC[C@H](Nc2ncc(Cl)c(C3CCCN(C(=O)C4CC4)C3)n2)CC1` (stereo partly drawn) [Compound 100, trans-N-(4-((5-chloro-4-(1-(cyclopropanecarbonyl)piperidin-3-yl)pyrimidin-2-yl)amino)cyclohexyl)acetamide], less than 0.5 µM; for `CNC(=O)[C@H]1CC[C@H](Nc2ncc(Cl)c(-c3cccc(-c4ccc(F)cc4)c3)n2)CC1` [Compound 101, trans-(1r,4r)-4-((5-chloro-4-(4′-fluoro-[1,1′-biphenyl]-3-yl)pyrimidin-2-yl)amino)-N-methylcyclohexane-1-carboxamide], less than 0.5 µM. Take `CC(=O)N[C@H]1CC[C@H](Nc2ncc(Cl)c(-c3cccc(-n4ccccc4=O)c3)n2)CC1` [Compound 102, trans-N-((1r,4r)-4-((5-chloro-4-(3-(2-oxopyridin-1 (2H)-yl)phenyl)pyrimidin-2-yl)amino)cyclohexyl)acetamide]: the IC50 was less than 0.5 µM. Regarding `CNC(=O)[C@H]1CC[C@H](Nc2ncc(Cl)c(-c3cccc(-n4ccccc4=O)c3)n2)CC1` [Compound 103, trans-(1r,4r)-4-((5-chloro-4-(3-(2-oxopyridin-1 (2H)-yl)phenyl)pyrimidin-2-yl)amino)-N-methylcyclohexane-1-carboxamide], the IC50 is less than 0.5 µM. Turning to `CNC(=O)[C@H]1CC[C@@H](Nc2ncc(Cl)c(-c3cccc(-n4ccccc4=O)c3)n2)CC1` [Compound 104, cis-(1s,4s)-4-((5-chloro-4-(3-(2-oxopyridin-1 (2H)-yl)phenyl)pyrimidin-2-yl)amino)-N-methylcyclohexane-1-carboxamide], the IC50 is less than 0.5 µM. With `CC(=O)N1CCC(Nc2ncc(Cl)c(-c3ccnc(-c4ccc(F)cc4)c3)n2)CC1` [Compound 105, 1-(4-((5-chloro-4-(2-(4-fluorophenyl)pyridin-4-yl)pyrimidin-2-yl)amino)piperidin-1-yl)ethan-1-one] the figure was less than 0.5 µM.

Consider `CNC(=O)[C@H]1CC[C@H](Nc2ncc(Cl)c(-c3ccc(=O)n(C4CC4)c3)n2)CC1` [Compound 106, trans-(1r,4r)-4-((5-chloro-4-(1-cyclopropyl-6-oxo-1,6-dihydropyridin-3-yl)pyrimidin-2-yl)amino)-N-methylcyclohexane-1-carboxamide], for which the half-inhibitory concentration (IC50) lay in the range of 0.5 to 1 µM. With `CNC(=O)[C@H]1CC[C@@H](Nc2ncc(Cl)c(-c3cnn(C4CC4)c3)n2)CC1` [Compound 107, cis-(1s,4s)-4-((5-chloro-4-(1-cyclopropyl-1H-pyrazol-4-yl)pyrimidin-2-yl)amino)-N-methylcyclohexane-1-carboxamide], the IC50 lay in the range of 0.5 to 1 µM. For `CNC(=O)[C@H]1CC[C@@H](Nc2ncc(Cl)c(-c3cnn(C4CCCCC4)c3)n2)CC1` [Compound 108, cis-(1s,4s)-4-((5-chloro-4-(1-cyclohexyl-1H-pyrazol-4-yl)pyrimidin-2-yl)amino)-N-methylcyclohexane-1-carboxamide] the value was 1 to 5 µM; for `CC(=O)N1CCC(Nc2ncc(Cl)c(-c3ccn(C4CCCCC4)n3)n2)CC1` [Compound 109, 1-(4-((5-chloro-4-(1-cyclohexyl-1H-pyrazol-3-yl)pyrimidin-2-yl)amino)piperidin-1-yl)ethan-1-one], 1 to 5 µM. For `CC(=O)N1CCC(Nc2ncc(Cl)c(-c3cnn(-c4ccc(=O)[nH]c4)c3)n2)CC1` [Compound 110, 5-(4-(2-((1-acetylpiperidin-4-yl)amino)-5-chloropyrimidin-4-yl)-1H-pyrazol-1-yl)pyridin-2(1H)-one], the IC50 is less than 0.5 µM. For `CC(=O)N1CCC(Nc2ncc(Cl)c(-c3cnn(-c4ccc[nH]c4=O)c3)n2)CC1` [Compound 111, 3-(4-(2-((1-acetylpiperidin-4-yl)amino)-5-chloropyrimidin-4-yl)-1H-pyrazol-1-yl)pyridin-2(1H)-one] the value was less than 0.5 µM; for `CC(=O)N1CCC(Nc2ncc(Cl)c(-c3cccc(-c4ccc(F)cc4)n3)n2)CC1` [Compound 114, 1-(4-((5-chloro-4-(6-(4-fluorophenyl)pyridin-2-yl)pyrimidin-2-yl)amino)piperidin-1-yl)ethan-1-one], less than 0.5 µM; for `CNC(=O)[C@H]1C[C@@H](Nc2ncc(Cl)c(-c3cccc(-c4ccc(F)cc4)n3)n2)C1` [Compound 115, cis-3-((5-chloro-4-(6-(4-fluorophenyl)pyridin-2-yl)pyrimidin-2-yl)amino)-N-methylcyclobutane-1-carboxamide], less than 0.5 µM. As for `CC(=O)N[C@H]1CC[C@H](Nc2ncc(Cl)c(-c3cnn(C4CC4)c3)n2)CC1` [Compound 116, trans-N-((1r,4r)-4-((5-chloro-4-(1-cyclopropyl-1H-pyrazol-4-yl)pyrimidin-2-yl)amino)cyclohexyl)acetamide], the IC50 is less than 0.5 µM.
